Where two headings read alike, the source gives them in different places.
How the values were obtained:
Assay type in all cases: biochemical
[1] = target: T1, human collagenase 3 (MMP-13) catalytic domain (Homo sapiens, UniProt P45452); test: Enzymatic activity of the catalytic domain of human collagenase 3 (MMP-13), fluorogenic substrate
T1 construct: catalytic domain of human collagenase 3 (MMP-13); purchased INVITEK, Berlin 30 100 803
Protocol: Determination of the enzymatic activity of the catalytic domain of human collagenase 3 (MMP-13).
Activation of the proenzyme:
2 parts by volume of proenzyme are incubated with 1 part by volume of APMA solution at 37° C. for 1.5 hours. The APMA solution is prepared from a 10 mmol/L
p-aminophenylmercuric acetate solution in […] by dilution with 3 parts by volume of Tris/HCl buffer pH7.5 (see below). The pH is adjusted to between 7.0 and 7.5 by adding 1 mmol/L HCl. After activation of the enzyme it is diluted with the Tris/HCl buffer to a concentration of 1.67 μg/mL.
To measure the enzymic activity, 10 μL of enzyme solution are incubated with 10 μL of a 3% strength (v/v) buffered dimethyl sulfoxide solution (reaction 1) for 15 minutes. To measure the enzyme inhibitory activity, 10 μL of enzyme solution are incubated with 10 μL of a 3% strength (v/v) buffered dimethyl sulfoxide solution which contains the enzyme inhibitor (reaction 2).
The enzymic reaction both in reaction 1 and in reaction 2 is followed, after addition of 10 μL of a 3% strength (v/v) aqueous dimethyl sulfoxide solution which contains 0.75 mmol/L of the substrate, by fluorescence spectroscopy (328 nm (extinction)/393 nm(emission)).
The enzymic activity is represented as increase in extinction/minute.
The inhibitory effect is calculated as percentage inhibition by the following formula:
% inhibition=100−[(increase in extinction/minute in reaction 2)/(increase in extinction/minute in reaction 1)×100].
The IC50, i.e. the inhibitor concentration necessary for 50% inhibition of enzymic activity, is found by plotting a graph of the percentage inhibitions at various inhibitor concentrations.
The buffer solution contains 0.05% Brij (Sigma, Deisenhofen, Germany) and 0.1 mol/L Tris/HCl, 0.1 mol/L NaCl, 0.01 mol/L CaCl2 (pH=7.5).
The enzyme solution contains 1.67 μg/mL of the enzyme domain.
The substrate solution contains 0.75 mmol/L of the fluorogenic substrate (7-methoxycoumarin-4-yl)acetyl-Pro-Leu-Gly-Leu-3-(2,4-dinitrophenyl)-L-2,3-diaminopropionyl-Ala-Arg-NH2 (Bachem, Heidelberg, Germany).

[2] = target: T2, human neutrophil collagenase (MMP-8) catalytic domain (Homo sapiens, UniProt P22894); test: Enzymatic activity of the catalytic domain of human neutrophil collagenase (MMP 8), fluorogenic substrate; details: Table 2; pH 7.5
T2 construct: catalytic domain of human stromelysin (MMP 3) and neutrophil collagenase (MMP8); made in house
T2 sequence (P22894 100-262 limits assumed): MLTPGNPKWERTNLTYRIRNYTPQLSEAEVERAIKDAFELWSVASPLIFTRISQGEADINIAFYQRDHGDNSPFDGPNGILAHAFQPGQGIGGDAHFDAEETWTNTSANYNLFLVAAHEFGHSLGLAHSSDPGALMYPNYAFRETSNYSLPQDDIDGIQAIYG
Protocol: (§1) Preparation and determination of the enzymatic activity of the catalytic domain of human stromelysin (MMP 3) and neutrophil collagenase (MMP8).
(§2) The two enzymes—stromelysin (MMP-3) and neutrophil collagenase (MMP-8)—were prepared as described by Ye et al. (Biochemistry; 31 (1992) pages 11231-11235). To measure the enzymic activity or the enzyme inhibitory effect, 70 μl of buffer solution and 10 μl of enzyme solution are incubated at physiological pH with 10 μl of a 10% strength (v/v) aqueous dimethyl sulfoxide solution which optionally contains the enzyme inhibitor for 15 minutes. After addition of 10 μl of a 10% strength (v/v) aqueous dimethyl sulfoxide solution which contains 1 mmol/l of the substrate, the enzymic reaction is followed by fluorescence spectroscopy (328 nm (ex)/393 nm(em)).
(§3) The enzymic activity is represented as increase in extinction/minute. The IC50 values listed in table 2 are measured as the inhibitor concentrations leading in each case to 50% inhibition of the enzyme.
(§4) The buffer solution contains 0.05% Brij (Sigma, Deisenhofen, Germany) and 0.1 mol/l Tris/HCl, 0.1 mol/l NaCl, 0.01 mol/l CaCl2 and 0.1 mol/l piperazine-N,N′-bis[2-ethanesulfonic acid] (pH=7.5).
(§5) The enzyme solution contains 5 μg/ml of one of the enzyme domains prepared as described by Ye et al. The substrate solution contains 1 mmol/l of the fluorogenic substrate (7-methoxycoumarin-4-yl)acetyl-Pro-Leu-Gly-Leu-3-(2,4-dinitrophenyl)-L-2,3-diaminopropionyl-Ala-Arg-NH2 (Bachem, Heidelberg, Germany).

[3] = target: T3, human stromelysin (MMP-3) catalytic domain (Homo sapiens, UniProt P08254); test: Enzymatic activity of the catalytic domain of human stromelysin (MMP 3), fluorogenic substrate; details: Table 2; pH 7.5
T3 construct: catalytic domain of human stromelysin (MMP 3); made in house
T3 sequence (P08254 100-272 limits assumed): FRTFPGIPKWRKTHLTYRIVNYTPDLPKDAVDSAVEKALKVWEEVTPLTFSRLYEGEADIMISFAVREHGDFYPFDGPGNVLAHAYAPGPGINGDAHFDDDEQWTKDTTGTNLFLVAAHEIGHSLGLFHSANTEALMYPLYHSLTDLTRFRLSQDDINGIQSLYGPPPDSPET
Protocol: as §1, §2, §3, §4, §5

[4] = Table 3, comparative examples, determination as described above, read-out: MMP 13
[5] = Table 2, pH 7.5, read-out: MMP 13 IC50

SMILES	IC50 [1, 4]	IC50 [2]	IC50 [1, 5]	IC50 [3]
O=C(O)[C@H]1Cc2ccccc2CN1S(=O)(=O)c1ccc(-c2ccc(Cl)cc2)cc1 [Example 35, reference compound]	30 nM			
Cn1cnc2c1C[C@H](C(=O)O)N(S(=O)(=O)c1ccc(-c3ccc(NC(=O)OCc4ccccc4)cc3)cc1)C2 [Example 7]		1000 nM	60 nM	> 10 µM
Cn1cnc2c1C[C@H](C(=O)O)N(S(=O)(=O)c1ccc(-c3ccc(NC(=O)OCC(C)(C)C)cc3)cc1)C2 [Example 8]		5000 nM	70 nM	> 10 µM
CC(C)COC(=O)Nc1ccc(-c2ccc(S(=O)(=O)N3Cc4ccccc4C[C@@H]3C(=O)O)cc2)cc1 [Example 4]		3000 nM	20 nM	2 µM
CN(C)c1ccc(-c2ccc(S(=O)(=O)N3Cc4ccccc4C[C@@H]3C(=O)O)cc2)cc1 [Example 39, reference compound]	2.9 nM			
CCCCCCOC(=O)Nc1ccc(-c2ccc(S(=O)(=O)N3Cc4ccccc4C[C@@H]3C(=O)O)cc2)cc1 [Example 3]		2000 nM	70 nM	> 10 µM
CC(C)COC(=O)Nc1ccc(-c2ccc(S(=O)(=O)N3Cc4ncn(C)c4C[C@@H]3C(=O)O)cc2)cc1 [Example 9]		200 nM	60 nM	
Cn1cnc2c1C[C@H](C(=O)O)N(S(=O)(=O)c1ccc(-c3ccc(NC(=O)OCC4CC4)cc3)cc1)C2 [Example 10]		700 nM	20 nM	> 10 µM
CC(C)OC(=O)Nc1ccc(-c2ccc(S(=O)(=O)N3Cc4ccccc4C[C@@H]3C(=O)O)cc2)cc1 [Example 2, 2-(4′-Isopropoxycarbonylaminobiphenyl-4-sulfonyl)-1,2,3,4-tetrahydroisocquinoline-3-(R)-carboxylic acid]		6000 nM	30 nM	3 µM
CCOC(=O)Nc1ccc(-c2ccc(S(=O)(=O)N3Cc4ccccc4C[C@@H]3C(=O)O)cc2)cc1 [Example 1]		2300 nM	40 nM	3 µM
O=C(Nc1ccc(-c2ccc(S(=O)(=O)N3Cc4ccccc4C[C@@H]3C(=O)O)cc2)cc1)OCC1CC1 [Example 5]		4000 nM	20 nM	3 µM
CC(C)OC(=O)Nc1ccc(-c2ccc(S(=O)(=O)N3Cc4ncn(C)c4C[C@@H]3C(=O)O)cc2)cc1 [Example 6]		4000 nM	80 nM	
O=C(O)[C@H]1Cc2ccccc2CN1S(=O)(=O)c1ccc(-c2ccccc2)cc1 [Example 34, reference compound]	50 nM			
